Entries after “also recorded” stand apart in the source; their conditions may differ. Like-named read-outs stand apart in the source and are kept apart here. Values belong to the molecule of their own block, whether it stands above or below them. Where a SMILES comes first, the peptide text is derived from it.
Columns and labels:
activated platelets = experiment: Platelet-thrombo-erythrocyte co-aggregation assay (microtiter); type: cell-based
Method: To assess the ability of thrombo-erythrocytes to enter into developing platelet aggregates, a microtiter assay was developed. Platelet-rich plasma (PRP) was prepared from blood anticoagulated with 0.01 volume 40% sodium citrate and adjusted to a platelet count of 3.5×10^8 /ml with platelet-poor plasma. Aliquots (50 or 100 μl) of the PRP were added to microtiter wells and then 5 or 10 μl of ADP (100 μM stock solution) was added to selected wells, followed by the addition of 5 or 10 μl of thrombo-erythrocytes (10% hematocrit in buffer A). The microtiter plate was then rotated at 270 rpm at 22° C. for variable periods of time between 0.5 and 20 min and the extent of platelet-thrombo-erythrocytecoaggregation was assessed visually on a scale from 0-4+ with the aid of a magnifying mirror. To assess the specificity of the reaction, in some experiments the PRP was preincubated with 10 mM EDTA, 300 μg/ml of the peptide RGDF, or 20 μg/ml of an antibody directed against both the GPIIb/IIIa receptor and the αv β3 vitronectin receptor that blocks fibrinogen binding to activated platelets (7E3) (Coller, 1985, J. Clin. Invest. 76:101-108; Coller et al., 1991, Blood 77:75-83). Blood smears were made from the samples in some experiments and stained with a standard Wright stain (Hemastain, Geometric Data, Wayne, Pa.).

platelets [1] = experiment: Agglutination assay with peptide-coated beads; type: cell-based
Method: Biol. 109:863) was a gift of Dr. Kenneth Yamada, National Institutes of Health, Bethesda, Md. The platelets were incubated with the antibody concentrations indicated for 30-60 min before the addition of the beads. In the case of PAC-1, which binds only to activated platelets (Shattil et al. 1985, J. Biol. Chem. 260:1107), the platelets were activated with ADP (6.7 μM final concentration) without stirring for 5 min before adding the antibody.
To 70 μl of PRP or GFP at a count of 3×10^11 platelets/l in a 96 well round bottom polystyrene microtiter plate, 5 μl of a well mixed bead suspension (0.22 mg beads) was added and the plate was rotated at 260 rpm (Orbit shaker, Lab Line Instruments, Melrose Park, Ill.) for various times between 0 and 30 min (0.5, 1, 2, 4, 6, 8, 10, 12, 15, 20, 25, 30 min). […] Platelet counts in the supernatant plasma or buffer were measured by removing 5 μl from the supernatant after allowing the bead agglutinates to settle for 3 min. […] In some experiments, platelets were activated with 6.7 μM ADP 30 sec prior to the addition of the beads; in other experiments the platelets were preincubated with 0.14 μM PGE1 (Sigma, St. Louis) for 30 min.

[2] = Solubility of (G)n-RGDF peptides in buffers
[3] = for solubility in 0.1% trifluoroacetic acid: pH 2.5; for solubility in the acetate buffer: pH 6.5
platelets [4] = experiment: Release of 14C-serotonin from platelets; type: cell-based; conditions: acetylsalicylic acid 50 μM; PGE1 0.14 μM; 8 min
Method: Citrated PRP (3×10^11 /l) was incubated with ^14 C-5-serotonin (10 μCi/ml stock solution, 20-25 nCi/ml final concentration, New England Nuclear, Boston, Mass.) for 30 min at 22° C. with gentle stirring (~100 rpm) using a teflon coated stir bar. In order to maintain the PRP pH constant at ~7.60, the PRP was overlayed with 5% CO2, 95% air just before the incubation began. Serotonin uptake was terminated by adding 5 μM imipramine (Sigma) and stirring was continued for another 5 min. Total uptake under these conditions was 70-80% of the added serotonin. The agglutination assay was performed in quadruplicate in the same way as described above except that after 8 min of shaking, 70 μl of cold 2% paraformaldehyde in PBS, pH 7.4 was added to the wells and the microtiter plate was centrifuged at 1000×g for 5 min at 22° C. The top 50 μl of the supernatant (total volume in each well was 145 μl) was added to scintillation fluid and counted in a scintillation spectrometer. In some experiments the PRP was preincubated with acetylsalicylic acid (50 μM) or PGE1 (0.14 μM) during the serotonin uptake.

7E3 binding to platelets = target: T1, 7E3 binding to platelets (Homo sapiens, UniProt P05106+P08514); experiment: Effect of RGD peptides on initial rate of 125I-7E3 binding to platelets
T1 construct: endogenous in cells; host or cells: platelets in citrated platelet-rich plasma (PRP)
Method: (§1) To assess the effect of RGD-containing peptides on the initial rate of binding of 7E3 and 10E5, studies were conducted with ^125 I-7E3 and ^125 I-10E5 essentially as described before (Coller, B.S., 1985, J. Clin. Invest. 76:101). The RGDS or LGGAKQAGDV(R)8 RGDV peptide was incubated at 22° C. with citrated PRP (~3×10^8 /ml) for 1 to 5 min at various concentrations and then non-saturating concentrations of the antibodies (1.5-2.5 μg/ml) were added for 1 to 2 min. The bound antibody was separated from the free by centrifugation of the PRP through 20% sucrose and both the platelet pellet and the supernatant were counted. Results were expressed as either an increase or decrease in antibody binding as compared to a buffer control.

[5] = target: T2, 10E5 binding to platelets (Homo sapiens, UniProt P05106+P08514); experiment: Effect of RGD peptides on initial rate of 125I-10E5 binding to platelets; conditions: similar concentrations (up to 5 mM); one experiment
T2 construct: endogenous in cells; host or cells: platelets in citrated platelet-rich plasma (PRP)
Method: as §1

gel-filtered platelets = experiment: Co-aggregation of thrombo-erythrocytes with gel-filtered platelets in the aggregometer; type: cell-based
Method: To obtain more quantitative data on the co-aggregation of thrombo-erythrocytes with platelets, the assay was adapted to the aggregometer. PRP was prepared from whole blood anticoagulated with ACD-A (8.5:1.5) and gel-filtered over a column of Sepharose 2B (Pharmacia) using a modified Tyrodes buffer (140 mM NaCl, 3 mM KCl, 12 mM NaHCO3, 0.4 mM NaH2 PO4, 10 mM HEPES, 2 mM MgCl2, 0.2% bovine serum albumin, 5 mM glucose, pH 7.4). Samples consisted of 450 μl of gel-filtered platelets+20 μl of thrombo-erythrocytes (10% hematocrit) or control erythrocytes (i.e., erythrocytes incubated with peptide but no crosslinker). Maximal transmission was set with 450 μl of buffer+20 μl of control erythrocytes. Platelets were activated with ADP (4.3 μM final concentration) or epinephrine (10 μM).

erythrocytes = experiment: Assessment of hemolysis (leucomalachite green); conditions: mean SD; n=6
Method: Hemolysis of erythrocytes during thrombo-erythrocyte preparation was assayed by the reaction of any free hemoglobin with leucomalachite green (Kodak; 0.1% p,p'-benzylidenebis-(N,N-dimethylaniline) in 3.3 M acetic acid). The resulting compound was detected by absorbance at 617 nm, a wavelength that is not interfered with by the mal-sac-HNSA dianion. Standards were prepared by lysing known amounts of erythrocytes in deionized water. The assay consisted of 10 μl of sample (the supernatant of the reaction mixture after centrifuging to remove intact erythrocytes), 1 ml of leucomalachite green, and 1 ml of 0.1% […]. After 10 min the absorbance of each sample was read at 617 nm.

[6] = tested on: platelets adherent to collagen; experiment: Binding of thrombo-erythrocytes to platelets adherent to collagen; type: cell-based; conditions: 1 hour, 22° C., 2 mM MgCl2
Method: The first stage of the assay, involving the adhesion of platelets to purified type 1 rat skin collagen, was performed as described previously, but without radiolabeling the platelets (Coller et al., 1989, Blood 74:182-192). In brief, a sample of gel-filtered platelets (100 μl; 5.5×10^8 /ml) in the presence of 2 mM MgCl2 was added to microtiter plate wells precoated with collagen and the platelets were allowed to adhere for 1 hour at 22° C. The wells were then emptied and washed×3 with buffer (0.15M NaCl, 0.01M Tris/HCl, 0.5% bovine serum albumin, 5 mM glucose, pH 7.4). Control erythrocytes or thrombo-erythrocytes (50 μl; 10% hematocrit) were then added to the wells in the same buffer, which was now supplemented with 2 mM MgCl2. After 60 min, the wells were emptied and washed×3 as above. The wells were then visually inspected at 400× magnification with the aid of a microscope with Nomarski optics. The effect of 20 μg/ml of an antibody to GPIIb/IIIa that blocks fibrinogen binding and platelet aggregation (10E5) (Coller et al., 1983, J. Clin. Invest. 72:325-338) and 400 μg/ml of the peptide RGDF on thrombo-erythrocyte adhesion to platelets was tested by adding these agents to the thrombo-erythrocytes immediately before the thrombo-erythrocytes were added to the microtiter wells.

T1 sequence (P08514 32-887 limits assumed): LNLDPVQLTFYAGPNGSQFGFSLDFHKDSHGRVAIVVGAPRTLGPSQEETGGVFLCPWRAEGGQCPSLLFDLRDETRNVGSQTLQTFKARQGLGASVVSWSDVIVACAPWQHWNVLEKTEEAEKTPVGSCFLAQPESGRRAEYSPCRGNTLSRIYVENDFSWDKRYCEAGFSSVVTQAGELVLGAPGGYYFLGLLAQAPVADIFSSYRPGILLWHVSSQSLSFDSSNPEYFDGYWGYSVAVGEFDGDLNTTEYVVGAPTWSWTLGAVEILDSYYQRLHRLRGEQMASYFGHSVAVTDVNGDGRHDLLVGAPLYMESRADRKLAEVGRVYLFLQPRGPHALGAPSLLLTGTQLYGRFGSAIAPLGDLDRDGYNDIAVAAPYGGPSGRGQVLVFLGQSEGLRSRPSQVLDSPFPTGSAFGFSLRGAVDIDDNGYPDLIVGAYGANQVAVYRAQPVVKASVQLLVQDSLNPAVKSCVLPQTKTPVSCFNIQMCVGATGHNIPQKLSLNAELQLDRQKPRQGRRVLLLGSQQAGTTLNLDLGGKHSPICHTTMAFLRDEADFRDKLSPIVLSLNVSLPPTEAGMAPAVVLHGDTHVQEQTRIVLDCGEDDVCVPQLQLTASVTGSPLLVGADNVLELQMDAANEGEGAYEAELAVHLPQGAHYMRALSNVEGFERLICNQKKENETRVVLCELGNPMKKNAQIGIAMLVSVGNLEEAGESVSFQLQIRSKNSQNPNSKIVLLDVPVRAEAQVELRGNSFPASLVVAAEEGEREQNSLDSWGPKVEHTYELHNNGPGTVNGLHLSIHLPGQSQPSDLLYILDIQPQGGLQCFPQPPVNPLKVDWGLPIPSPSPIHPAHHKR
T1 sequence (P08514 891-1039 partner limits assumed): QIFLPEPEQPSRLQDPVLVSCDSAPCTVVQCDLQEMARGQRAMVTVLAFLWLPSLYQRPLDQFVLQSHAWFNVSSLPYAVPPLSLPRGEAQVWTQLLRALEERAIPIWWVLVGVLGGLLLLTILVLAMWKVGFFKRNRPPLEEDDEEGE
T1 sequence (P05106 27-788): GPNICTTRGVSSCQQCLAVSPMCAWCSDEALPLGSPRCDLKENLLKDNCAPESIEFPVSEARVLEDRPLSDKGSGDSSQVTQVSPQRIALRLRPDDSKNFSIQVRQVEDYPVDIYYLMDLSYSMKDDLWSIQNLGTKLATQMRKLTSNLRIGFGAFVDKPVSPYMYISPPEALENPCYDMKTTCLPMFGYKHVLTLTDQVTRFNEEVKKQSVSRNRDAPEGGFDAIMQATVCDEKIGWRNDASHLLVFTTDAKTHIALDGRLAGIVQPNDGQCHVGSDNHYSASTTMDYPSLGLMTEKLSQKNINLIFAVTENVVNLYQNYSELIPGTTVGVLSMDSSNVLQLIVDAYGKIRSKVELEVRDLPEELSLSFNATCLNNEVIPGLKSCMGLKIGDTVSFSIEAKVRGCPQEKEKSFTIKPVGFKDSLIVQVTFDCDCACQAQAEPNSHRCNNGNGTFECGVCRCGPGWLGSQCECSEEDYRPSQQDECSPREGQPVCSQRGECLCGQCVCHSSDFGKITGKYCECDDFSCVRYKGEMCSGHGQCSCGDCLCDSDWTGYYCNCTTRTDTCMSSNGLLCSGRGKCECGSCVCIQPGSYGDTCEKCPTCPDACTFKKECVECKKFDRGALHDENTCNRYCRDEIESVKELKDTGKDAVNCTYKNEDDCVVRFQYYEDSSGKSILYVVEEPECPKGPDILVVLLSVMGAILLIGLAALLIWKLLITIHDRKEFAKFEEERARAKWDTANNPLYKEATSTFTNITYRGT
T2 sequence (P08514 32-887 limits assumed): as the sequence (P08514 32-887 limits assumed) above
T2 sequence (P08514 891-1039 partner limits assumed): as the sequence (P08514 891-1039 partner limits assumed) above
T2 sequence (P05106 27-788): as the sequence (P05106 27-788) above

Molecule: O=C(O)CN(CCN(CC(=O)O)CC(=O)O)CC(=O)O [EDTA, reference compound]
effect on platelet-thrombo-erythrocyte co-aggregation (activated platelets; ADP-activated PRP preincubated with 10 mM EDTA, 300 μg/ml RGDF or antibody 7E3): inhibited
bead agglutination in the presence of the agent (platelets [1]): no agglutination at all

Molecule: N=C(N)NCCC[C@H](NC(=O)CNC(=O)CNC(=O)CNC(=O)CNC(=O)CNC(=O)CNC(=O)CNC(=O)CNC(=O)CNC(=O)CNC(=O)CN)C(=O)NCC(=O)N[C@@H](CC(=O)O)C(=O)N[C@@H](Cc1ccccc1)C(N)=O [G11 -RGDF]
solubility in the acetate buffer ([2]; 0.05M Na acetate buffer, pH 6.5): only partially soluble
solubility in 0.1% trifluoroacetic acid ([2]; pH 2.5, 22° C. or 37° C.): fully soluble

solubility in 0.1% trifluoroacetic acid [3]: fully soluble
solubility in the acetate buffer [3]: only partially soluble
Molecule: N=C(N)NCCC[C@H](NC(=O)CNC(=O)CNC(=O)CNC(=O)CNC(=O)CNC(=O)CNC(=O)CNC(=O)CNC(=O)CNC(=O)CNC(=O)CNC(=O)CNC(=O)CN)C(=O)NCC(=O)N[C@@H](CC(=O)O)C(=O)N[C@@H](Cc1ccccc1)C(N)=O [G13 -RGDF]

solubility in 0.1% trifluoroacetic acid [3]: fully soluble
solubility in the acetate buffer [3]: only partially soluble
Molecule: N=C(N)NCCC[C@H](NC(=O)CNC(=O)CNC(=O)CNC(=O)CNC(=O)CNC(=O)CNC(=O)CNC(=O)CNC(=O)CNC(=O)CNC(=O)CNC(=O)CNC(=O)CNC(=O)CNC(=O)CN)C(=O)NCC(=O)N[C@@H](CC(=O)O)C(=O)N[C@@H](Cc1ccccc1)C(N)=O [G15 -RGDF] (H-GGGGGGGGGGGGGGGRGDF-NH2)

solubility in 0.1% trifluoroacetic acid [3]: fully soluble
solubility in the acetate buffer [3]: only partially soluble
Molecule: N=C(N)NCCC[C@H](NC(=O)CNC(=O)CNC(=O)CNC(=O)CNC(=O)CNC(=O)CNC(=O)CNC(=O)CNC(=O)CNC(=O)CNC(=O)CNC(=O)CNC(=O)CNC(=O)CNC(=O)CNC(=O)CNC(=O)CN)C(=O)NCC(=O)N[C@@H](CC(=O)O)C(=O)N[C@@H](Cc1ccccc1)C(N)=O [G17 -RGDF] (H-GGGGGGGGGGGGGGGGGRGDF-NH2)

solubility in 0.1% trifluoroacetic acid [3]: fully soluble
solubility in the acetate buffer [3]: only partially soluble
Molecule: N=C(N)NCCC[C@H](NC(=O)CNC(=O)CNC(=O)CNC(=O)CNC(=O)CNC(=O)CNC(=O)CNC(=O)CNC(=O)CNC(=O)CNC(=O)CNC(=O)CNC(=O)CNC(=O)CNC(=O)CNC(=O)CNC(=O)CNC(=O)CNC(=O)CN)C(=O)NCC(=O)N[C@@H](CC(=O)O)C(=O)N[C@@H](Cc1ccccc1)C(N)=O [G19 -RGDF] (H-GGGGGGGGGGGGGGGGGGGRGDF-NH2)

Molecule: CCCCC[C@H](O)/C=C/[C@H]1[C@H](O)CC(=O)[C@@H]1CCCCCCC(=O)O [PGE1]
effect of preincubation of platelets on serotonin release induced by (G)n -RGDF beads (platelets [4]): abolished release

Molecule: CC(=O)Oc1ccccc1C(=O)O [acetylsalicylic acid]
effect of preincubation of platelets on serotonin release induced by (G)n -RGDF beads (platelets [4]): did not change this pattern

Molecule: PAC-1
inhibition of agglutination of G1 -RGDF and G3 -RGDF beads (platelets [1]): effectively inhibited
Inhibition of G9 -RGDF Bead Agglutination (%) +ADP (platelets [1]; antibody 60 μg/ml, 30 min): 8%
inhibition of the interaction of platelets in PRP with G1 -RGDF, G3 -RGDF, and G5 -RGDF beads (platelets [1]; even with ADP activation): > 90%

increase in initial rate of 7E3 binding (7E3 binding to platelets; peptide 2.5 mM, n=1): 63%
increase in initial rate of 7E3 binding (7E3 binding to platelets; peptide 5 mM, citrated PRP, n=2): 66%
increase in initial rate of 7E3 binding (7E3 binding to platelets; peptide 0.5-1 mM, n=4): 21%
decrease in rate of 10E5 binding [5]: 5%
Molecule: RGDS

Molecule: Y-HHLGGAKQAGDV (N-terminal added tyrosine) [Fibrinogen Dodecapeptide (+Tyr), fibrinogen γ-chain dodecapeptide (amino acids 400-411) with an added amino-terminal tyrosine]
Inhibition of G9 -RGDF Bead Agglutination (%) (platelets [1]; peptide 1.8 × 10^-3 M): 13%
Inhibition of G9 -RGDF Bead Agglutination (%) (platelets [1]; peptide 3.6 × 10^-3 M): 67%
Inhibition of G9 -RGDF Bead Agglutination (%) (platelets [1]; peptide ≤4.5 × 10^-4 M): 0%

Molecule: thrombo-erythrocytes: erythrocytes covalently conjugated through Mal-Sac-HNSA to the peptide acetyl-Cys-Gly-Gly-Arg-Gly-Asp-Phe-amide (Ac-CGGRGDF-NH2) (also: conjugated to erythrocytes via Mal-Sac-HNSA)
platelet-thrombo-erythrocyte co-aggregation (activated platelets; PRP with ADP, 120 min crosslinking, more than 20 experiments): positive response
interaction with platelets (activated platelets; no agonist added): did not interact with platelets
interaction with platelets (aggregometer) (gel-filtered platelets; ADP-activated gel-filtered platelets, 4.3 μM ADP): interact with ADP-activated platelets
interaction with platelets (aggregometer) (gel-filtered platelets; unactivated gel-filtered platelets, stirring, 37° C.): did not interact with unactivated platelets
erythrocyte hemolysis in supernatant fluid after the thrombo-erythrocyte reaction (erythrocytes): 0.40±0.09%
binding to platelets adherent to collagen [6]: formed a dense lawn on top of the platelet lawn; also recorded: bound extensively to the adherent platelets

Reference: patent US5328840A, “Method for preparing targeted carrier erythrocytes” (The Research Foundation of the State University of New York, priority 1991, dated 1994)
